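Test compounds were applied to cells in 96-well plates for 48 hours at 5 doses. The concentration for full growth arrest is given as TGI.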
Columns and labels:
Test in all cases: NCI-60 cell line screen, 48 h
MALME-3M melanoma = test system: MALME-3M melanoma
SK-MEL-28 melanoma = test system: SK-MEL-28 melanoma
MDA-MB-231 breast = test system: MDA-MB-231 breast
MCF7 breast = test system: MCF7 breast
U251 CNS = test system: U251 CNS
MOLT-4 leukemia = test system: MOLT-4 leukemia
NCI-H460 lung = test system: NCI-H460 lung
SW-620 colon = test system: SW-620 colon
LOX IMVI melanoma = test system: LOX IMVI melanoma
OVCAR-8 ovarian = test system: OVCAR-8 ovarian
DU-145 prostate = test system: DU-145 prostate
K-562 leukemia = test system: K-562 leukemia
OVCAR-4 ovarian = test system: OVCAR-4 ovarian
RPMI-8226 leukemia = test system: RPMI-8226 leukemia
NCI/ADR-RES ovarian = test system: NCI/ADR-RES ovarian
HCC-2998 colon = test system: HCC-2998 colon
M14 melanoma = test system: M14 melanoma
EKVX NSCLC = test system: EKVX NSCLC
SF-539 CNS = test system: SF-539 CNS
HL-60(TB) leukemia = test system: HL-60(TB) leukemia
CCRF-CEM leukemia = test system: CCRF-CEM leukemia
UACC-62 melanoma = test system: UACC-62 melanoma
HT29 colon = test system: HT29 colon
IGROV1 ovarian = test system: IGROV1 ovarian
A549 NSCLC = test system: A549 NSCLC
SNB-19 CNS = test system: SNB-19 CNS
SF-295 CNS = test system: SF-295 CNS
RXF 393 renal = test system: RXF 393 renal
COLO 205 colon = test system: COLO 205 colon
NCI-H226 lung = test system: NCI-H226 lung
TK-10 renal = test system: TK-10 renal
HCT-15 colon = test system: HCT-15 colon
NCI-H522 lung = test system: NCI-H522 lung
MDA-MB-435 = test system: MDA-MB-435
MDA-N = test system: MDA-N
SK-OV-3 ovarian = test system: SK-OV-3 ovarian
HCT-116 colon = test system: HCT-116 colon
ACHN renal = test system: ACHN renal
SF-268 CNS = test system: SF-268 CNS
786-0 renal = test system: 786-0 renal
CAKI-1 renal = test system: CAKI-1 renal
HOP-62 NSCLC = test system: HOP-62 NSCLC
BT-549 breast = test system: BT-549 breast
HS 578T breast = test system: HS 578T breast
NCI-H23 lung = test system: NCI-H23 lung
KM12 colon = test system: KM12 colon
SK-MEL-5 melanoma = test system: SK-MEL-5 melanoma
SN12C renal = test system: SN12C renal
OVCAR-3 ovarian = test system: OVCAR-3 ovarian
SR leukemia = test system: SR leukemia
UO-31 renal = test system: UO-31 renal
PC-3 prostate = test system: PC-3 prostate
A498 renal = test system: A498 renal
UACC-257 melanoma = test system: UACC-257 melanoma
T-47D breast = test system: T-47D breast
HOP-92 NSCLC = test system: HOP-92 NSCLC
OVCAR-5 ovarian = test system: OVCAR-5 ovarian
SNB-75 CNS = test system: SNB-75 CNS
SK-MEL-2 melanoma = test system: SK-MEL-2 melanoma

Measured: TGI

Cc1nc(C)c(N2CCN(C(=O)O)CC2)c(=O)[nH]1
> 100 µM: MALME-3M melanoma | SK-MEL-28 melanoma | MDA-MB-231 breast | MCF7 breast | U251 CNS | MOLT-4 leukemia | NCI-H460 lung | SW-620 colon | LOX IMVI melanoma | OVCAR-8 ovarian | DU-145 prostate | K-562 leukemia | OVCAR-4 ovarian | RPMI-8226 leukemia | NCI/ADR-RES ovarian | HCC-2998 colon | M14 melanoma | EKVX NSCLC | SF-539 CNS | HL-60(TB) leukemia | CCRF-CEM leukemia | UACC-62 melanoma | HT29 colon | IGROV1 ovarian | A549 NSCLC | SNB-19 CNS | SF-295 CNS | RXF 393 renal | COLO 205 colon | NCI-H226 lung | TK-10 renal | HCT-15 colon | NCI-H522 lung | MDA-MB-435 | MDA-N | SK-OV-3 ovarian | HCT-116 colon | ACHN renal | SF-268 CNS | 786-0 renal | CAKI-1 renal | HOP-62 NSCLC | BT-549 breast | HS 578T breast | NCI-H23 lung | KM12 colon | SK-MEL-5 melanoma | SN12C renal | OVCAR-3 ovarian | SR leukemia | UO-31 renal | PC-3 prostate | A498 renal | UACC-257 melanoma | T-47D breast | HOP-92 NSCLC

COC1CC(C)([N+](=O)[O-])C(O)C(C)O1 (stereo not given)
> 100 µM: MALME-3M melanoma | SK-MEL-28 melanoma | MDA-MB-231 breast | MCF7 breast | U251 CNS | MOLT-4 leukemia | NCI-H460 lung | SW-620 colon | LOX IMVI melanoma | OVCAR-8 ovarian | DU-145 prostate | K-562 leukemia | OVCAR-4 ovarian | RPMI-8226 leukemia | NCI/ADR-RES ovarian | HCC-2998 colon | M14 melanoma | EKVX NSCLC | SF-539 CNS | HL-60(TB) leukemia | OVCAR-5 ovarian | CCRF-CEM leukemia | UACC-62 melanoma | HT29 colon | IGROV1 ovarian | A549 NSCLC | SNB-19 CNS | SF-295 CNS | RXF 393 renal | COLO 205 colon | NCI-H226 lung | TK-10 renal | HCT-15 colon | NCI-H522 lung | MDA-MB-435 | MDA-N | SK-OV-3 ovarian | HCT-116 colon | ACHN renal | SF-268 CNS | 786-0 renal | CAKI-1 renal | HOP-62 NSCLC | BT-549 breast | HS 578T breast | NCI-H23 lung | KM12 colon | SK-MEL-5 melanoma | SN12C renal | SNB-75 CNS | OVCAR-3 ovarian | SR leukemia | UO-31 renal | PC-3 prostate | SK-MEL-2 melanoma | A498 renal | UACC-257 melanoma | T-47D breast | HOP-92 NSCLC
